Test results published in patent US11845935B2, “Regulation of MIR-143 using nucleic acid molecules” (CHILDREN'S HOSPITAL MEDICAL CENTER, priority 2017, dated 2023).

Tests used:
M6PR [1] = target: T1, M6PR (Homo sapiens, UniProt P11717); assay: M6P competition of IDUA-myc uptake in HUVEC; assay type: cell-based
T1 construct: endogenous in cells; host or cells: HUVEC (parental, or transduced with LV-143Spg / control LV)

M6PR [2] = target: T1, M6PR; assay: M6P competition of IDUA-myc uptake in hCMEC/D3 cells; assay type: cell-based; settings: 1 h exposure to IDUA-myc conditioned medium (~20,000 U/mL), read-out: Median inhibitory concentration (IC50) of IDUA-myc uptake

T1 sequence (P11717 41-2491): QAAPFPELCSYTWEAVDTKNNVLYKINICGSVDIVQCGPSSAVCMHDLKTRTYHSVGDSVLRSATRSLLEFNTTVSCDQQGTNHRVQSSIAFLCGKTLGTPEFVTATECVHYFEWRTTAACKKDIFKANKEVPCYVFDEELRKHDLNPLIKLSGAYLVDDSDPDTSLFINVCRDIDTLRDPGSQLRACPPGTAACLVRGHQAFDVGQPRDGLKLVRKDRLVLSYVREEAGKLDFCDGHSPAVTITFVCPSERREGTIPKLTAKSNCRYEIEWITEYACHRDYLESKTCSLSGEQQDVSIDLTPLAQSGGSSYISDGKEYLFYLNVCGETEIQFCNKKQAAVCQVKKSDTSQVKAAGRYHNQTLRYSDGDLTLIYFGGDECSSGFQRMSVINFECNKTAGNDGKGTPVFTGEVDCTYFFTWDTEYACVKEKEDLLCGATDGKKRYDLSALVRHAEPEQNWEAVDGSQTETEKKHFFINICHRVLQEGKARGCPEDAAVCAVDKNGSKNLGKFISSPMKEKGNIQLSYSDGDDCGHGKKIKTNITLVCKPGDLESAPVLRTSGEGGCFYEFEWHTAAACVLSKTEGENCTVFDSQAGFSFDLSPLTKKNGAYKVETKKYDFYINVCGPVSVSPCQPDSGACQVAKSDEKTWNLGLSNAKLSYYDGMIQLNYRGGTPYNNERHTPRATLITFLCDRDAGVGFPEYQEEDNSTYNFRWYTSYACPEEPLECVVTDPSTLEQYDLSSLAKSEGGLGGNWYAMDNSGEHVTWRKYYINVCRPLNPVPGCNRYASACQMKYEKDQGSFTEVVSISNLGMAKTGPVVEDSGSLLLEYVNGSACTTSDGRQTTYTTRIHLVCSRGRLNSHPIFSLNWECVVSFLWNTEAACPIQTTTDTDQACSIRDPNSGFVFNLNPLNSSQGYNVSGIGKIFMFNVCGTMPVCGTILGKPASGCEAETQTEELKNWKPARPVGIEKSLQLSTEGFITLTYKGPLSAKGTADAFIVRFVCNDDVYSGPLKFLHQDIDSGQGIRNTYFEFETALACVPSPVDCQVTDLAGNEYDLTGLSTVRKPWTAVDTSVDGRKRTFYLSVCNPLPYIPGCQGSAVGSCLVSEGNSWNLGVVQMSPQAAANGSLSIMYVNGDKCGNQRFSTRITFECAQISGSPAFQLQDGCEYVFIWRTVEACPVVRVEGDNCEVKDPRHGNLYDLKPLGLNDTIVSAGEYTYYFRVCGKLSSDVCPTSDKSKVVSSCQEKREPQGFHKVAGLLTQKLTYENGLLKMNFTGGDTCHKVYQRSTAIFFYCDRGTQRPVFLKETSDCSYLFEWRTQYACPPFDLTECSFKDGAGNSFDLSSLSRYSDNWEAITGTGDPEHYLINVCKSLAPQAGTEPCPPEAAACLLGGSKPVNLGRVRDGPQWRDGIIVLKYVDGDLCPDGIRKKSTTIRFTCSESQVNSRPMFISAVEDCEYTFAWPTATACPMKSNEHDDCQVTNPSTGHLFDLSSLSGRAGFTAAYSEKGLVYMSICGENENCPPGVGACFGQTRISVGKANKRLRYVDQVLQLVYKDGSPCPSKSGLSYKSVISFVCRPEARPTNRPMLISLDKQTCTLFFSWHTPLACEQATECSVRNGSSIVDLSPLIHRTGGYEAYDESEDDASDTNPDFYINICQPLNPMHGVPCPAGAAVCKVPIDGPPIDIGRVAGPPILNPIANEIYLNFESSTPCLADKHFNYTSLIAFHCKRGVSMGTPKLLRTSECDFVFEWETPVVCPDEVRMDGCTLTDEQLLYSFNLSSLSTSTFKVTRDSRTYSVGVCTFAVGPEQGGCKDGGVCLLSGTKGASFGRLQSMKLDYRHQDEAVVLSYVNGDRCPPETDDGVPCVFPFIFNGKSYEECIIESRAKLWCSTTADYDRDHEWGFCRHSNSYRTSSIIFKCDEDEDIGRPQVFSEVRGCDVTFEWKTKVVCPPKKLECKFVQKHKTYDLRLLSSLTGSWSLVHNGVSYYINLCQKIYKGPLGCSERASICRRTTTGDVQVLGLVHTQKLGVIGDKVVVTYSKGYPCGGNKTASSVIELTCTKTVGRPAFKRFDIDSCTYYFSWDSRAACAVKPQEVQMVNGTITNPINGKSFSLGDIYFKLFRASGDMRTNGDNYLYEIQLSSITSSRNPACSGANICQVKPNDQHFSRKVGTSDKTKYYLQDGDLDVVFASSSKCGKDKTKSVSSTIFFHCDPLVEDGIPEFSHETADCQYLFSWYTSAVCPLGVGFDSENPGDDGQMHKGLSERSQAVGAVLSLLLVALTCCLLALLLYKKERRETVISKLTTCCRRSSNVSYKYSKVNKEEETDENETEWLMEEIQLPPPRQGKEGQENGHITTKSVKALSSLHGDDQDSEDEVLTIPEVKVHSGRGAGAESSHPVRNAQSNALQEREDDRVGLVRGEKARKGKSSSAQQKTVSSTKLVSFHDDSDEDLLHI

## O=C[C@@H](O)[C@@H](O)[C@H](O)[C@H](O)COP(=O)(O)O [M6P inhibitor, mannose 6-phosphate]
M6PR [1]; 1 h exposure to IDUA-myc conditioned medium (~20,000 U/mL), read-out: Median inhibitory concentration (IC50) of IDUA-myc uptake
  IC50: 347 µM
M6PR [1]; residual uptake under M6P competition
  M6PR-independent uptake (plateau): ~18%
M6PR [2]
  IC50: 57.2 µM
